{
  "source": "patent US20070110833A1",
  "about": "“Composition comprising the alcohol compound isolated from the extract of cucurbitaceae family plant having anti-adipogenic and anti-obesity activity” (priority 2003, published 2007)",
  "system": "3T3-L1 cell",
  "assay": "Inhibition of adipocyte (3T3-L1) differentiation and triglyceride accumulation, Oil Red O staining",
  "format": "cell-based",
  "protocol": "Adipocyte cell (3T3-L1) purchased from ATCC (American Tissue Culture Collection, USA) was cultured in RPMI medium containing 10% FBS and MDI cocktail (isobutylmethylxanthine, dexamethasone, insulin) was added thereto for differentiating into mature adipocytes cell. After two days, the medium was replaced and treated with only insulin. Thereafter, the medium was replaced and equal concentration of insulin was treated again every other day. MDI ranging from 2.5 to 1000 ug/ml of the concentration was treated when the adipocytes differentiation was induced and equal concentration of the MDI was treated at every replacement of the medium.\nAfter eight days lapsed, the accumulated fat within differentiated cell was stained with Oil Red O staining reagent and the absorbance was determined with optical density qualitatively. The inhibition percentage (%) was calculated by following Empirical formula 1. The Inhibition Percentage (%)=[O.D. of test group]/[O.D. value of Control group]×100 [Empirical Formula 1]",
  "data": [
    {"compound": "C[S+]([O-])c1ccc(-c2nc(-c3ccncc3)c(-c3ccc(F)cc3)[nH]2)cc1", "note": "(centres unmarked) [SB203580]", "values": [
      {"measurement": "adipocyte differentiation and triglyceride accumulation", "setting": "Experimental Example 1-3, cmc-9 and controls, FIG. 5", "value": "the triglyceride was not formed"},
      {"measurement": "level of produced triglycerides in differentiated 3T3-L1 cells (Oil Red O)", "setting": "MDI-induced differentiation, 8 days, extracts 1 mg/ml, SB203580 10 uM, FIGS. 1 and 2", "value": "the triglyceride was not produced"}
    ]}
  ]
}
